Test results taken from patent US20090036380A1, “Composition And Method For Brain Tumor Therapy” (Yeda Research and Development Co., Ltd., priority 2006, published 2009).

What was measured:
PC12 cells [1] = assay: Effect of pathway proteins and inhibitors on Karet-induced cell death in PC12 cells; type: cell-based, rat
[2] = test system: human medulloblastoma cells (MED 283) stably transfected to express TrkA; conditions: cited from earlier work
TrkA [3] = assay: Co-immunoprecipitation of HA-Karet constructs with TrkA; type: binding; conditions: co-transfected Hek or NNR5 cells, anti-HA IP
Description: (§1) FIG. 3c is a co-immunoprecipitation assay depicting co-immunoprecipitation of HA-Karet with TrkA in COS cells. Karet tagged with the HA epitope was immunoprecipitated with anti-HA antibody and the blot was incubated with anti-TrkA (RTA). In control experiments the HA-Karet was substituted with vector.
(§2) FIG. 3d is a co-immunoprecipitation assay depicting interaction of Karet and TrkA in NNR5 cells transfected with TrkA.
(§3) FIG. 3e is a co-immunoprecipitation assay depicting co-immunoprecipitation of HA-Karet with TricA in co-transfected NNR5 cells immunoprecipitated with anti-HA (Roche) and Western blot with the anti-TrkA antibody C14 (Santa Cruz).
(§4) FIGS. 4a-c are co-immunoprecipitation assay results depicting the influence of NGF treatment on TrkA-Karet interaction. FIG. 4a depicts that TrkA-Karet interaction occurred prior to NGF treatment and was enhanced after ligand stimulation for 10 minutes (10 m) or 2 hours (2 h). HA-Karet was electroporated into cell line PC12, and the cells were treated with 50 ng/ml NGF for the indicated time periods in order to activate p75 and TrkA. Karet tagged with the HA epitope was immunoprecipitated with anti-HA antibody, the precipitated proteins were separated electrophoretically, and gel blots were incubated with anti-TrkA antibody (RTA). FIG. 4b depicts that necdin seems to compete with TrkA for binding to Karet. myc-Karet was electroporated into necdin stable cell line, and the cells were treated with 50 ng/ml NGF for the indicated time periods. Karet tagged with the myc epitope was immunoprecipitated with anti-myc antibody, the precipitated proteins were separated electrophoretically, and gel blots were incubated with anti-TrkA antibody (RTA). […] A blot from the same experiment was stripped and re-incubated with anti-necdin antibody. The arrow indicates the glycosylated form of TrkA (molecular weight of 140 kDa).
(§5) FIG. 7b is an immunoprecipitation assay depicting that the PTB domain-containing Karet(1-228) mutant, but not Karet(228-453) co-immunoprecipitates with TrkA in NNR5 cells. Truncation mutants tagged with the HA epitope were immunoprecipitated with anti-HA antibody, the precipitated proteins were separated electrophoretically, and gel blots were incubated with anti-TrkA (RTA).
(§6) FIGS. 24a-d depict co IP of Ha Karet with TrkA, TrkB, TrkC, p75 from co-transfected Hek cells. Cells were co-transfected with Ha Karet or control vector and TrkA, TrkB, TrkC or p75. Cells were lysed with NP40, the HA-beads (beads conjugated to anti-HA antibody) were blocked with Hek lysate, and elution was done for 30 minutes at 37° C. […]

PC12 cells [4] = assay: Viability / death of PC12 cells after transfection with Karet constructs (Live/dead kit, FACS, cell counting, Hoechst); type: cell-based, rat
Description: FIG. 5a is a bar-graph of FACS data depicting 50 percent death of PC12 cells overexpressing Karet. Shown is a FACS analysis of PC12 viability 15 hours after transfection with Ha-Karet or control vector using Live/dead kit (Molecular probes), T-test=0.003.
FIG. 5b is a series of fluorescence photomicrographs depicting death of PC12 cells caused by Karet overexpression. Shown is a live/dead kit analysis of PC12 cells overexpressing Ha-Karet (left panels) versus control vector-transfected cells (right panels). Live cell are stained in green, dead cells are stained in red. Upper panels each show red fluorescence only (left picture) and green fluorescence only (right picture) pairs, and lower panels each show combined red and green fluorescence (left picture) and light microscopy images (right picture) pairs.
FIG. 5d is a pair of Hoechst stain histology photomicrographs depicting condensation of chromatin indicating apoptosis in PC12 cells expressing Karet, but not in control cells transfected with vector only.
FIG. 5e is a histogram depicting that Karet expression induces cell death of TrkA expressing cells, which is increased by NGF treatment and is decreased by necdin. PC12 or PC12 necdin stable cell line were electroporated with Karet or GFP control and incubated with or without 50 ng/ml NGF for 12 hours. Cells were counted and result presented as percent of control.
PC12 cells were transfected with Ha Karet, PTB, non PTB and their combinations. Cells were analyzed by FACS 18 hours after transfection using the dead/live kit. N=3; * p<0.05; **p<0.001;
The lower panel is a histogram depicting that Karet-mediated cell death correlates well with expression levels of the Karet protein. PC12 Tet-on cells were electroporated with Ha-Karet cloned under inducible promoter and incubated for 24 hours with different concentrations of doxycycline. Cells transfected with Karet but not treated with doxycycline served as control. Cells were counted and the results were determined as percent of control. The upper panel is a control Western blot depicting increased Karet expression with increased concentrations of doxycycline. Cells transfected with Karet and treated with doxycycline were lysed in NP-40 buffer and subjected to SDS-PAGE analysis. Similar amount of protein was loaded and blotted for Karet expression with Ha antibody. Proteins levels were checked with anti-tubulin antibody.
FIG. 18a—PC12 were transfected with Ha Karet, Karet F217V, PTB F217V or a control vector (pcDNA3) and 18 hours after transfection the effect of Karet or Karet mutants on cell death was determined using the dead/live kit and FACS analysis. Results are presented in percentages as compared to cells transfected with the control vector. N=3 **P<0.001. […] FIG. 18b—Cells were lysed 24 hours after transfection, fractionated on SDS-PAGE and immunoblot for anti Ha (Covance).
FIG. 19 is a histogram depicting FACS analysis of Karet-induced death. PC12 cells were co-transfected with Karet and the PTB, non-PTB or the F217V mutant at different ratios (1:1, 1:2, 1:3) and 18 hours after transfection the cells were analyzed by FACS using the dead/live kit.
Viability of cells was evaluated using the Live/dead viability/cytotoxicity kit (Cat. No. L-3224), Molecular Probes, Inc., Eugene, Oreg., USA, according to manufacturer's instructions.

TrkA [5] = target: T1, TrkA (Rattus norvegicus, UniProt P35739); assay: Co-immunoprecipitation of HA-Karet constructs with TrkA; type: binding; conditions: PC12 cells transfected with Karet; 50 ng/ml NGF, 10 minutes and 2 hours
T1 construct: expressed in transfected cells
T1 sequence (P35739 33-799): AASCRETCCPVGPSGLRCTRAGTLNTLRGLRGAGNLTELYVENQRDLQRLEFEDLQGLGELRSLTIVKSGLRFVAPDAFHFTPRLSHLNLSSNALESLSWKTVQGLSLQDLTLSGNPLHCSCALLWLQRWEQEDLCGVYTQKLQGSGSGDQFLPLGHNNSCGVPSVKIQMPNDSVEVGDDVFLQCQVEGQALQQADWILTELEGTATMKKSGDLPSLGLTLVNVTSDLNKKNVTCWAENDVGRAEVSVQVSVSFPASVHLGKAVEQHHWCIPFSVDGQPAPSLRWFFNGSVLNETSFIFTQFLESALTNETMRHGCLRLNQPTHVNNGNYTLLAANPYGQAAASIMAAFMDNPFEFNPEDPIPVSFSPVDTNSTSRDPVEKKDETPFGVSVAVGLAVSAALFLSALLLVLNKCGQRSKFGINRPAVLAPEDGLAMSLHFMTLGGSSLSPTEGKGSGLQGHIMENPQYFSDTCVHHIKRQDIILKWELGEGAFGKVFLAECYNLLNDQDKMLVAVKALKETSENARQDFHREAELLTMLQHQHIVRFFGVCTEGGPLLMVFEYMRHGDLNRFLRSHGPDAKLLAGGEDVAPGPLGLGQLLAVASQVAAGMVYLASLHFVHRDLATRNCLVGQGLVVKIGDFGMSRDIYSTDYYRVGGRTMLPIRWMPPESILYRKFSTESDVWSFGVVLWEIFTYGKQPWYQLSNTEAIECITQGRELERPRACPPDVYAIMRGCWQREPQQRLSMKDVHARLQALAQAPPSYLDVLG
Description: as §1, §2, §3, §4, §5, §6

Compound: COC(=O)[C@@]1(O)C[C@H]2O[C@]1(C)n1c3ccccc3c3c4c(c5c6ccccc6n2c5c31)C(=O)NC4 [K252a, reference compound]
- effect on cell death effect of Karet (PC12 cells [1]; PC12 cells expressing Karet, 12 hours, different concentrations of K252A): diminished the cell death effect of Karet
- effect on NGF-induced apoptosis ([2]; TrkA-medulloblastoma cells): inhibited

Compound: Karet(228-453): C-terminal truncation mutant of mouse Karet, amino acid residues 228-453 (SEQ ID NO:8)
- co-immunoprecipitation / interaction with TrkA (TrkA [3]): does not
- effect on Karet-induced death in competition assay (PC12 cells [4]; PC12 co-transfected with Karet at ratios 1:1, 1:2, 1:3, FACS 18 hours after transfection): reduced Karet-induced death

Compound: C[S+]([O-])c1ccc(-c2nc(-c3ccncc3)c(-c3ccc(F)cc3)[nH]2)cc1 (centres unmarked) [SB203580, reference compound]
- effect on cell death induction by Karet (PC12 cells [1]; PC12 electroporated with Karet, 10 micromolar SB203580): did not affect cell death induction

Compound: NGF: nerve growth factor, neurotrophin ligand of TrkA
- effect of NGF on TrkA-Karet interaction (TrkA [5]): enhanced
- additional increase of death by NGF treatment (PC12 cells [4]; PC12 cells overexpressing Karet, 50 ng/ml NGF, 12 hours): 30%
- cell death on NGF treatment ([2]; MED 283 cells expressing TrkA): significant levels of cell death
